Assay results from ChEMBL document CHEMBL6087481, “Interleukin-1 Receptor-Associated Kinase 4 (IRAK4) Degraders for Treating Inflammatory Diseases: Advances and Prospects” (J Med Chem, 2025).
Each block holds one molecule with its values, some of them ahead of it.

How the values were obtained:
[1] = molecular target: von Hippel-Lindau disease tumor suppressor/Interleukin-1 receptor-associated kinase 4 (Homo sapiens, UniProt Q9NWZ3+P40337); experiment: PROTAC activity at VHL/IRAK4 in human HEK293T cells assessed as IRAK4 degradation measured after 24 hrs by immunoblotting analysis; assay type: cell-based
[2] = molecular target: T1, Protein cereblon/Interleukin-1 receptor-associated kinase 4 (Mus musculus, UniProt Q8C7D2+Q8R4K2); experiment: PROTAC activity at IRAK4/CRBN in mouse RAW264.7 cells assessed as reduction in IRAK4 level incubated for 12 hrs by Western blot analysis; assay type: cell-based
T1 sequence (Q8C7D2 whole entry): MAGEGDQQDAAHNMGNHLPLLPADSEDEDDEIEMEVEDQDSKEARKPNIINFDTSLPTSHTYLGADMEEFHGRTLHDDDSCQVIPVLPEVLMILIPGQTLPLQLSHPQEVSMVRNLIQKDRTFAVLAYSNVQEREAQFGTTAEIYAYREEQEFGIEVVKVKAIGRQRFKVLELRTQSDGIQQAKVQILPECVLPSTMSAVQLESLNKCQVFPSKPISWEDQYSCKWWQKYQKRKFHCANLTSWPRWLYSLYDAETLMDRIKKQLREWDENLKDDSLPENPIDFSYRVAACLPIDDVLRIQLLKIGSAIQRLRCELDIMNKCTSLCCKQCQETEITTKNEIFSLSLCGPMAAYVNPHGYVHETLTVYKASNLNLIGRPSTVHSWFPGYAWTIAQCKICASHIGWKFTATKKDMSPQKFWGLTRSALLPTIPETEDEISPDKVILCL
T1 sequence (Q8R4K2 whole entry): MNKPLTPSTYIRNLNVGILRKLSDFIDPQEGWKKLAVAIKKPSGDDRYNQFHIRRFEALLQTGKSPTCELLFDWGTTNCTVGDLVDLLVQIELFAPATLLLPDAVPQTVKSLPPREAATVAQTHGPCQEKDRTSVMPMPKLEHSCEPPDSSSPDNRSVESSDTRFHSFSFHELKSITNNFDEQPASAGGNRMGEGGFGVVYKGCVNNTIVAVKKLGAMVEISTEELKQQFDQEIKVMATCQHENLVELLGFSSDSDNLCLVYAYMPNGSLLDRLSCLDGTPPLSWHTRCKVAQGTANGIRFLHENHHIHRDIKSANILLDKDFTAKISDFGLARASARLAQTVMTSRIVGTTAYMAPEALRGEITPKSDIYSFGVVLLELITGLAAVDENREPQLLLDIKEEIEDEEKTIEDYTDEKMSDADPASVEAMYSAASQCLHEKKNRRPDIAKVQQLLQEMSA

[3] = molecular target: T2, Interleukin-1 receptor-associated kinase 4 (Homo sapiens, UniProt Q9NWZ3); experiment: Inhibition of IRAK4 (unknown origin)
T2 sequence (Q9NWZ3 whole entry): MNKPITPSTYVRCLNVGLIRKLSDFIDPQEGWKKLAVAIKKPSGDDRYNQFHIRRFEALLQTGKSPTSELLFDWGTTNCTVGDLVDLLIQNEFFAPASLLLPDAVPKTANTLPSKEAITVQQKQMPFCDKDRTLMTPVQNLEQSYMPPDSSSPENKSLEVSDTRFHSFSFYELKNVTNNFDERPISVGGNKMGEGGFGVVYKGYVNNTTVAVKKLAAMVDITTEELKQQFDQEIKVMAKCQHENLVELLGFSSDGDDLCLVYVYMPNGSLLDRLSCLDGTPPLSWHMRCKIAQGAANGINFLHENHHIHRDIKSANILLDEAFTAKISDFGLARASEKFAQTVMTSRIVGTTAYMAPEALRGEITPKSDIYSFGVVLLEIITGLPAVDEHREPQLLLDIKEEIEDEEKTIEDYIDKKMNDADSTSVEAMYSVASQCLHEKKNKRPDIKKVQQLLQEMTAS

von Hippel-Lindau disease tumor suppressor/Interleukin-1 receptor-associated kinase 4, sequence (P40337 whole entry, one chain of several): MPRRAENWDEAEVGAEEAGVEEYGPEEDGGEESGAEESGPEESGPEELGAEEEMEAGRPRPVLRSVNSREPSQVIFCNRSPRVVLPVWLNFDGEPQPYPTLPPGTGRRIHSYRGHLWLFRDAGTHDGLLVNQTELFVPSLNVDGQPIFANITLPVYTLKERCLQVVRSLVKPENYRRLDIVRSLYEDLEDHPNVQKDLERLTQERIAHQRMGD

Compound: CC(C)Nc1cc(-n2ccc3cc(C#N)cnc32)ncc1C(=O)N[C@H]1CC[C@H](C(=O)NCCOCCNC(=O)Oc2cccc3c2C(=O)N(C2CCC(=O)NC2=O)C3=O)CC1 (stereo partly drawn)
DC50 [1]: 0.405 µM

DC50 [2]: 0.0473 µM
Compound: COc1cc(N2CCN(C(=O)CCOCC#Cc3ccc4c(c3)C(=O)N(C3CCC(=O)NC3=O)C4=O)CC2)ccc1NC(=O)c1cccc(-c2ccn[nH]2)n1 (stereo not drawn)

IC50 [3]: 0.003 µM
Compound: CC(C)Nc1cc(-n2ccc3cc(C#N)cnc32)ncc1C(=O)N[C@H]1CC[C@H](C(=O)NC2CC2)CC1
